According to patent publication US20240261257A1, “METHODS OF TREATING BACTERIAL INFECTIONS” (Sheba Impact Ltd., priority 2023, published 2024):

What was measured:
S. aureus ATCC 25923 = assay: broth microdilution growth inhibition (CLSI), S. aureus ATCC 25923; assay type: cell-based; settings: CAMHB broth microdilution, read-out: concentration (μM) which inhibits 50% (or more) growth
Experimental: (§1) Iron-free enterobactin from E. coli was purchased from Sigma-Aldrich (E3910) and from EMC (Tübingen, Germany), iron-free salmochelin S4 was purchased from EMC (Tübingen, Germany).
(§2) Bacterial strains were provided by the Clinical Microbiology Laboratory at Sheba Medical Center.
(§3) Bacterial final inoculum was 5×10^5 colony-forming units ml^−1. Enterobactin and salmochelin were dissolved in 100% dimethylsulfoxide (DMSO) to a stock solution of 10 μM and further diluted using CAMHB to final concentrations.

MRSA SA 742 USA300 = assay: broth microdilution growth inhibition (CLSI), MRSA SA 742 USA300; assay type: cell-based, S. aureus; settings: CAMHB broth microdilution, read-out: concentration (μM) which inhibits 50% (or more) growth
Experimental: as §1, §2, §3

MRSA SA 196 = assay: broth microdilution growth inhibition (CLSI), MRSA SA 196; assay type: cell-based, S. aureus; settings: CAMHB broth microdilution, read-out: concentration (μM) which inhibits 50% (or more) growth
Experimental: as §1, §2, §3

MSSA SA 197 USA300 = assay: broth microdilution growth inhibition (CLSI), MSSA SA 197 USA300; assay type: cell-based, S. aureus; settings: CAMHB broth microdilution, read-out: concentration (μM) which inhibits 50% (or more) growth
Experimental: as §1, §2, §3

MRSA SA 198 USA300 = assay: broth microdilution growth inhibition (CLSI), MRSA SA 198; assay type: cell-based, S. aureus; settings: CAMHB broth microdilution, read-out: concentration (μM) which inhibits 50% (or more) growth
Experimental: as §1, §2, §3

MRSA SA 255 = assay: broth microdilution growth inhibition (CLSI), MRSA SA 255; assay type: cell-based, S. aureus; settings: CAMHB broth microdilution, read-out: concentration (μM) which inhibits 50% (or more) growth
Experimental: as §1, §2, §3

MSSA SA 256 = assay: broth microdilution growth inhibition (CLSI), MSSA SA 256; assay type: cell-based, S. aureus; settings: CAMHB broth microdilution, read-out: concentration (μM) which inhibits 50% (or more) growth
Experimental: as §1, §2, §3

[1] = test system: clinical isolates of MRSA USA300; assay: inhibitory effect on clinical isolates of MRSA USA300 (FIGS. 1A-B); assay type: cell-based, Staphylococcus aureus
Experimental: as §1, §2, §3

VRE 195 = assay: inhibitory effect on clinical isolate VRE 195; assay type: cell-based, vancomycin resistant Enterococci; settings: FIG. 2A, FIG. 3A
Experimental: as §1, §2, §3

VRE 197 = assay: inhibitory effect on clinical isolate VRE 197; assay type: cell-based, vancomycin resistant Enterococci; settings: FIG. 2B, FIG. 3B
Experimental: as §1, §2, §3

S. aureus = assay: antimicrobial activity against S. aureus (combinations, iron ions; strain not named); assay type: cell-based; settings: iron ions added; FIGS. 6A-B
Experimental: as §1, §2, §3

Row | SMILES | IC50 (S. aureus ATCC 25923) [µM] | IC50 (MRSA SA 742 USA300) [µM] | IC50 (MRSA SA 196) [µM] | IC50 (MSSA SA 197 USA300) [µM] | IC50 (MRSA SA 198 USA300) [µM] | IC50 (MRSA SA 255) [µM] | IC50 (MSSA SA 256) [µM] | inhibitory effect on clinical isolates of MRSA USA300 [1] | inhibitory effect on clinical isolates of VRE 195 (VRE 195) | inhibitory effect on clinical isolates of VRE 197 (VRE 197) | antimicrobial activity against S. aureus in the presence of iron ions (S. aureus)
1 | O=C(N[C@H]1COC(=O)[C@@H](NC(=O)c2cc([C@@H]3O[C@H](CO)[C@@H](O)[C@H](O)[C@H]3O)cc(O)c2O)COC(=O)[C@@H](NC(=O)c2cc([C@@H]3O[C@H](CO)[C@@H](O)[C@H](O)[C@H]3O)cc(O)c2O)COC1=O)c1cccc(O)c1O [Salmochelin, Salmochelin S4] | 2.4 ± 0.22 | 3.12 ± 1.25 | 2.5 | 2.5 | 5 | 5 | 5 | inhibitory effect | inhibitory effect | inhibitory effect | reduce but do not abolish
2 | O=C(N[C@H]1COC(=O)[C@@H](NC(=O)c2cccc(O)c2O)COC(=O)[C@@H](NC(=O)c2cccc(O)c2O)COC1=O)c1cccc(O)c1O [Enterobactin, enterobactin] | 6 ± 2.7 | 10 | 5 | > 5 | > 5 | > 5 | > 5 | inhibitory effect | inhibitory effect | inhibitory effect | reduce but do not abolish
